Experimental findings from patent publication US11103493B2, “Substituted pyridinyl compounds as indoleamine 2,3-dioxygenase (IDO) inhibitors” (Merck Sharp & Dohme Corp., priority 2017, dated 2021) are described below.

pIC50: −log10 of the molar value.

Assay [1] has as its target T1, IDO1 (Homo sapiens, UniProt P14902). Nature of the assay: IDO1 Cellular Assay in HeLa Cells Stimulated with IFNγ. In kind it is cell-based. The following applies: IFNγ 100 ng/mL, 300 uM L-tryptophan, about 48 hours incubation, fluorescence readout, read-out: IDO1 HeLa Cell Assay, IC50. As to the method:
IDO1 Cellular Assay in HeLa Cells Stimulated with IFNγ
HeLa cells were cultured in complete HeLa culture medium (90% EMEM, 10% heat-inactivated fetal bovine serum) and expanded to about 1×10^9 cells. The cells were then collected and frozen down at 1×10^7 cells/vial in 1 mL frozen medium (90% complete HeLa culture medium, 10% DMSO).
Compounds to be tested were serially diluted in ten 3-fold steps in DMSO starting from 10 mM DMSO stocks in Echo low volume plate(s).
Frozen HeLa cells were thawed and transferred into HeLa assay medium (99% complete HeLa culture medium, 1% Pen/Strep) with 20 mL medium/vial of cells. The cells were spun down at 250 g in a table top centrifuge for 5 min and suspended in same volume of HeLa assay medium. The cells were then counted and adjusted to a density of 2×10^5 cells/mL in HeLa assay medium. Sterile L-tryptophan were added to the cells with final concentration of 300 uM L-tryptophan. A small aliquot (2 mL/plate) of HeLa cells were set aside and were not treated with IFNγ, to serve as the Max-E control.
HeLa cells with and without IFNγ were dispensed to the respective wells of 384-well assay plates containing the compounds. The plates were incubated for about 48 hours at a 37° C., 5% CO2 incubator. Afterwards, 12 μL of 0.5 M methyl isonipecotate in dimethyl sulfoxide were added into each well and the plates were sealed and incubated at 37° C. without CO2 overnight. The plates were centrifuged for 1 min at 200×g. The resulting fluorescence was measured in a Spectramax plate reader (Molecular Devices) with a 400 nm excitation filter and a 510 nm emission filter.
Potencies were calculated by […] least squares fit to the four parameter logistic IC50 equation.

Assay [2] concerns the target T1, IDO1. In words: IDO1 Human Whole Blood Assay. In kind it is cell-based. The following applies: LPS and IFNγ 100 ng/mL, 18 h, kynurenine by LC/MS/MS. As for the experimental part: IDO1 Human Whole Blood Assay
Compounds to be tested were serially diluted in ten 3-fold steps in DMSO starting from 10 mM. 3 μL of compound dilutions or DMSO alone were then dispensed from the dilution plate into a polypropylene 96-well assay plate containing 97 μL of RPMI medium using an Echo 555 acoustic liquid handler (Labcyte). LPS and IFNγ was prepared in RPMI medium to a 10× of final conc. (1000 ng/mL), final concentration is 100 ng/mL.
Human whole blood was drawn in sodium heparin coated tubes from healthy internal donors. 240 μL of blood was transferred to each of the wells of a v-bottom 96 well plate. 30 μL of compound was transferred from intermediate dilution plate, and incubated for 15 min. 30 μL from stimulants was then transferred to blood and mixed thoroughly. Plate was covered with breathable membrane and incubated at 37° C. for overnight (18 h).
On day 2, isotope labeled standard solutions of kunurenine and tryptophan was made in water at 10× concentration and 30 μL was added to the blood at […] concentration. The assay plates were centrifuged at 300×G for 10 min with no brake to separate plasma from red blood cells. 60 μL of plasma samples was removed without disturbing red blood cells. Plasma was diluted with RPMI in 1:1 ratio and proteins were precipitated out with two volumes of Acetonitrile. The plates were centrifuged at 4000×G for 60 min. 20 μL of supernatant was carefully transferred to a 384 well plate containing 40 μL of 0.1% formic acid in water and analyzed by LC/MS/MS.
LC/MS/MS analyses were performed using Thermo Fisher's LX4-TSQ Quantum Ultra system. This system consists of four Agilent binary high-performance liquid chromatography (HPLC) pumps and a TSQ Quantum Ultra triple quadrupole MS/MS instrument. For each sample, 5 μL were injected onto an Atlantis T3 column (2.1 mm×150 mm, 3 μm particle size) from Waters. The mobile phase gradient pumped at 0.8 mL/min was used to elute the analytes from the column at 25° C. The elution started at 0% B increasing linearly to 25% B at 6.5 min, holding at 25% for 1 min, re-equilibrating to 10 min. Mobile phase A consisted of 0.1% formic acid in water. Mobile phase B consisted of 0.1% of formic acid in acetonitrile. Data was acquired in positive mode using a HESI interface. The operational parameters for the TSQ Quantum Ultra instrument were a spray voltage of 4000 V, capillary temperature of 380° C., vaporizer temperature 400° C., shealth gas 60 arbitrary units, Aux gas 20 arbitrary units, tube lens 85 and collision gas 1.2 mTorr. SRM chromatograms of kynurenine (QI: 209.2>Q3:94.0) and internal standard (QI: 215.3>Q3:98.2) were collected for 90 sec. The peak area was integrated by Xcalibur Quan software. The ratios between the kynurenine generated in the reaction and 2D6-Kynurenine spiked-in internal standard were used to generate percentage inhibition and IC50 values. Compounds were titrated and IC50's were calculated by 4 parameter sigmoidal curve fitting formula.

T1 sequence (P14902 whole entry): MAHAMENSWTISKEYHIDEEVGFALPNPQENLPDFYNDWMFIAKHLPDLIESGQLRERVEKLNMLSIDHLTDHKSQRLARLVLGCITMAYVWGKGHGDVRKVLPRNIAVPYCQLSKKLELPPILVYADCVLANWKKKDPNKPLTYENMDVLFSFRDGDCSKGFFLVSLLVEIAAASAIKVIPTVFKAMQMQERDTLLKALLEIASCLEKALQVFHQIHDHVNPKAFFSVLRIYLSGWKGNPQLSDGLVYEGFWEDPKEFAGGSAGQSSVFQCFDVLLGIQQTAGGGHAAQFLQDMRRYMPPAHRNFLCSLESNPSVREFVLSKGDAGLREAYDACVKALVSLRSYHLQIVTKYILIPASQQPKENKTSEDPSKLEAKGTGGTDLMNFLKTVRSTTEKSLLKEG

Usually pIC50 stands for the IC50 on a negative log10 scale, so that one unit is a factor of ten. Turning to `N#Cc1cccc(C(=O)Nc2ccc(C3(c4nc5ncc(C(F)(F)F)cc5[nH]4)CCC3)nc2)c1` [Ex. 45, 3-Cyano-N-(6-(1-(6-(trifluoromethyl)-1H-imidazo[4,5-b]pyridin-2-yl)cyclobutyl)pyridin-3-yl)benzamide], the negative-log IC50 (pIC50) at IDO1 [1] is 8.30; at IDO1 [2] it was 5.24.
For the compound `N#Cc1cccc(C(=O)Nc2ccc(C3(c4nc5ccccc5[nH]4)CCC3)nc2)c1` [Ex. 46, N-(6-(1-(1H-benzo[d]imidazol-2-yl)cyclobutyl)pyridin-3-yl)-3-cyanobenzamide], the pIC50 is 8.21 at IDO1 [1] and 5.77 against IDO1 [2].
